One compound from ChEMBL document CHEMBL4330076, “Quinazolin-2,4-dione-Based Hydroxamic Acids as Selective Histone Deacetylase-6 Inhibitors for Treatment of Non-Small Cell Lung Cancer” (J Med Chem, 2019) can be followed below.

The nature of data set [1]: Drug uptake in C57BL/6 mouse lung at 40 mg/kg, po administered via gavage by LC-MS/MS analysis. Type of data set: ADME, organism-based. The conditions noted are these: in vivo.
Data set [2] is described as follows: Ratio of AUC (0 to 24 hrs) in lung to plasma of C57BL/6 mouse at 40 mg/kg, po administered via gavage by LC-MS/MS analysis. It is filed as ADME, organism-based. The following applies: read-out: Ratio AUC.
Data set [3] concerns Lewis lung carcinoma cell line. The data set can be described thus: Induction of apoptosis in mouse LL/2 cells assessed as viable cells at 4 uM after 24 hrs in presence of paclitaxel by Annexin V/propidium iodide staining-based flow cytometric analysis (reference value: 82.3%). It is filed as functional.
Data set [4] has as its system Lewis lung carcinoma cell line. The data set can be described thus: Induction of apoptosis in mouse LL/2 cells assessed as viable cells at 4 uM after 24 hrs by Annexin V/propidium iodide staining-based flow cytometric analysis (reference value: 82.3%). Type of data set: functional.
Data set [5] in a line: Drug uptake in C57BL/6 mouse lung at 40 mg/kg, po administered via gavage co-administered with paclitaxel at 10 mg/kg, ip by LC-MS/MS analysis. Type of data set: ADME, organism-based. The conditions noted are these: in vivo.
Data set [6] has as its system Lewis lung carcinoma cell line. The data set can be described thus: Antitumor activity against mouse LL/2 cells implanted in C57BL/6 mouse assessed as tumor growth inhibition at 40 to 80 mg/kg, po qd administered for 21 consecutive days relative to control. It is filed as functional.
Data set [7] can be described thus: Drug uptake in C57BL/6 mouse kidney at 40 mg/kg, po administered via gavage by LC-MS/MS analysis. It is filed as ADME, organism-based. The following applies: in vivo.
For data set [8], the system named is Lewis lung carcinoma cell line. The data set can be described thus: Induction of apoptosis in mouse LL/2 cells assessed as necrotic cells at 4 uM after 24 hrs in presence of paclitaxel by Annexin V/propidium iodide staining-based flow cytometric analysis (reference value: 7.3%). Type of data set: functional.
Data set [9] can be described thus: Ratio of drug uptake in C57BL/6 mouse liver at 40 mg/kg, po administered via gavage co-administered with paclitaxel at 10 mg/kg, ip by LC-MS/MS analysis to drug uptake in C57BL/6 mouse liver at 40 mg/kg, po administered via gavage by LC-MS/MS analysis. Type of data set: ADME, organism-based. The following applies: in vivo.
A short description of data set [10]: Ratio of drug uptake in C57BL/6 mouse lung at 40 mg/kg, po administered via gavage co-administered with paclitaxel at 10 mg/kg, ip by LC-MS/MS analysis to drug uptake in C57BL/6 mouse lung at 40 mg/kg, po administered via gavage by LC-MS/MS analysis. It is filed as ADME, organism-based. The following applies: in vivo.
Data set [11] addresses T1, Protein deacetylase HDAC6 (Homo sapiens, UniProt Q9UBN7).
T1 sequence (Q9UBN7 whole entry): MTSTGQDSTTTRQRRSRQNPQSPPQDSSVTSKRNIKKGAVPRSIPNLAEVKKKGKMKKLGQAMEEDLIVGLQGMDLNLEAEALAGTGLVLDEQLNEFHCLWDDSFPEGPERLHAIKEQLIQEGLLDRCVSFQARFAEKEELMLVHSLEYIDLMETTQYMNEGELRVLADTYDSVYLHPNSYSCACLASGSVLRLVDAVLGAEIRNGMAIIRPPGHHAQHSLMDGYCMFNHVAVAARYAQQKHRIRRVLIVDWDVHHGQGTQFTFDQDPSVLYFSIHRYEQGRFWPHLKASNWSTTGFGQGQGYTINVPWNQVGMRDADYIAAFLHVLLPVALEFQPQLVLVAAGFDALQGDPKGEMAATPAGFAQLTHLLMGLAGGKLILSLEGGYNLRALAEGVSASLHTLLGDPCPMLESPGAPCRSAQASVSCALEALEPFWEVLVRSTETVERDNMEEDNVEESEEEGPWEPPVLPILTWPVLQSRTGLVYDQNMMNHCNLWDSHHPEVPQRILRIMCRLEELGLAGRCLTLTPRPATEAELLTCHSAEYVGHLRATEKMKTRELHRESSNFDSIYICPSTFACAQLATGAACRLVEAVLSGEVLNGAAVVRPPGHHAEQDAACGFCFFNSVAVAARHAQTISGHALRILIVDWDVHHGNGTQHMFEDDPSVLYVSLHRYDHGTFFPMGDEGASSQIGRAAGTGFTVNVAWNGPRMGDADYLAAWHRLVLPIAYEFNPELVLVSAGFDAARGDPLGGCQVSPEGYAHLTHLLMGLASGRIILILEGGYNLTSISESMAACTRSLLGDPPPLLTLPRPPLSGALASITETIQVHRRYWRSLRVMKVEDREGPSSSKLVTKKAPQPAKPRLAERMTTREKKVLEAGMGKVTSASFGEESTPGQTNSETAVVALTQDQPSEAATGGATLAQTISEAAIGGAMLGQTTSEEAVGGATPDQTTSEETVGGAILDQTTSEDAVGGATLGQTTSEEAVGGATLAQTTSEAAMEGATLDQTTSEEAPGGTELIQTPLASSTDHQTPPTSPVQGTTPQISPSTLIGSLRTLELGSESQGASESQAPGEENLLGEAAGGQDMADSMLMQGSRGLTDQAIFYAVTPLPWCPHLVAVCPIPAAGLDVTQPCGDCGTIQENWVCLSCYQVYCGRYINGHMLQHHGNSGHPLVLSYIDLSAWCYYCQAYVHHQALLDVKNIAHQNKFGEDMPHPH
The data set can be described thus: Competitive inhibition of human HDAC6 CD2 expressed in Escherichia coli BL21 (RIL) using Boc-Lys (Ac)-AMC as substrate preincubated for 10 mins followed by substrate addition and measured after 30 mins by fluorescence assay.

A short description of data set [12]: Drug uptake in C57BL/6 mouse kidney at 40 mg/kg, po administered via gavage co-administered with paclitaxel at 10 mg/kg, ip by LC-MS/MS analysis. Type of data set: ADME, organism-based. The conditions noted are these: in vivo.
In data set [13] the test system is Lewis lung carcinoma cell line. The data set can be described thus: Induction of apoptosis in mouse LL/2 cells assessed as early apoptotic cells at 4 uM after 24 hrs in presence of paclitaxel by Annexin V/propidium iodide staining-based flow cytometric analysis (reference value: 1.8%). Type of data set: functional.
A short description of data set [14]: Ratio of drug uptake in C57BL/6 mouse plasma at 40 mg/kg, po administered via gavage co-administered with paclitaxel at 10 mg/kg, ip by LC-MS/MS analysis to drug uptake in C57BL/6 mouse plasma at 40 mg/kg, po administered via gavage by LC-MS/MS analysis. Type of data set: ADME, organism-based. The conditions noted are these: in vivo.
The nature of data set [15]: Drug uptake in C57BL/6 mouse plasma at 40 mg/kg, po administered via gavage by LC-MS/MS analysis. Type of data set: ADME, organism-based. The conditions noted are these: in vivo.
A short description of data set [16]: Drug metabolism in C57BL/6 mouse liver assessed as hydrolysis metabolite formation at 40 mg/kg, po administered via gavage by LC-MS/MS analysis. The conditions noted are these: in vivo. Type of data set: ADME, organism-based.
Data set [17] can be described thus: AUC (0 to 24 hrs) in C57BL/6 mouse plasma at 40 mg/kg, po administered via gavage by LC-MS/MS analysis. The conditions noted are these: in vivo. Further details: time < 24 hr, dose 40 mg/kg, route oral. Type of data set: ADME, organism-based.
The nature of data set [18]: Drug metabolism in C57BL/6 mouse plasma assessed as hydrolysis metabolite formation at 40 mg/kg, po administered via gavage by LC-MS/MS analysis. Type of data set: ADME, organism-based. The conditions noted are these: in vivo.
Data set [19] in a line: Ratio of drug uptake in C57BL/6 mouse kidney at 40 mg/kg, po administered via gavage co-administered with paclitaxel at 10 mg/kg, ip by LC-MS/MS analysis to drug uptake in C57BL/6 mouse kidney at 40 mg/kg, po administered via gavage by LC-MS/MS analysis. Type of data set: ADME, organism-based. The conditions noted are these: in vivo.
Data set [20] is described as follows: Drug metabolism in C57BL/6 mouse kidney assessed as hydrolysis metabolite formation at 40 mg/kg, po administered via gavage by LC-MS/MS analysis. Type of data set: ADME, organism-based. The conditions noted are these: in vivo.

The structures appear in SMILES notation.

In the case of `O=C(NO)c1ccc(Cn2c(=O)n(CCc3ccccc3)c(=O)c3ccccc32)cc1`, the Drug uptake is listed as 212 ng/g in data set [1], 331 ng/g in [5], 130 ng/g in [7] and 392 ng/g in data set [12]. In addition, the Kp in data set [2] came out at 18.8. Besides, the Activity worked out at 64.8% in [3], 85.8% in data set [4], 5.3% in [8] and 8.8% in [13]. The inhibition of tumour growth (TGI) in data set [6] came to 63.4%. Besides, the Ratio in data set [9] is on record as 0.9; in data set [10], 1.6; in data set [14], 12.3; in data set [19], 3. In data set [11], this compound gave a Ki of 3.7 nM. The compound also displayed a Cp in data set [15] of 13 ng/mL. Besides, the Drug metabolism entry in data set [16], in data set [18] and in data set [20] was “Metabolite_Detected” each time. The compound further yielded an AUC in data set [17] of 71 ng·h/g.
